# Test results as given in US10695366B2 (ZS PHARMA, INC., priority 2013, dated 2020).
# Test system: beagles
# Conditions: dog, in vivo
# Description: The following 14-day study is designed to show the effect of particle size and particle form on the urinary pH and presence of crystals in the urine. The compounds above are administered to beagles orally by mixing with wet dog food. The regimen is administered 3 times a day at 6 hour intervals over a 12 hour period in the following manner:
# The dose levels were 100 or 600 mg/kg/dose.
substance,measurement,value
microporous zirconium silicate [ZS-9],"test article-related findings (direct or indirect), microscopic",not present
